In the supplement of paper PMC10883282:

Legend:
Test in all cases: relative viability vs DMSO control (72 h) (fraction); higher = more viable cells
G401 = system: G401
In short: (§1)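 Relative viability is percent growth read by ATPLite and averaged over up to triplicate wells. Sarcoma cells were seeded in 384-well plates to reach 80–90% confluence and given 2.5 µl of serially diluted compound after 24 h, from source plates of 10 mM to 0.0002 mM. Incubation lasted 72 h at 37 °C, 5% CO2, with 0.1% DMSO vehicle and a 5 µM positive control, and the data were rescaled so 1 equals full and 0 equals none.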

HT1080 = system: HT1080
In short: as §1

KHOS-240S = system: KHOS-240S
In short: as §1

MES-SA = system: MES-SA
In short: as §1

RD-ES = system: RD-ES
In short: as §1

RD = system: RD
In short: as §1

SK-ES-1 = system: SK-ES-1
In short: as §1

SK-LMS-1 = system: SK-LMS-1
In short: as §1

SW1353 = system: SW1353
In short: as §1

SW982 = system: SW982
In short: as §1

SYO-1 = system: SYO-1
In short: as §1

VA-ES-BJ = system: VA-ES-BJ
In short: as §1

CN(C)C(=O)c1cc2cnc(Nc3ccc(N4CCNCC4)cn3)nc2n1C1CCCC1 [Ribociclib]
Settings | relative viability
G401, 0.00017 µM | 0.987
G401, 0.00051 µM | 0.968
G401, 0.00152 µM | 1.02
G401, 0.00457 µM | 0.983
G401, 0.01372 µM | 0.97
G401, 0.04115 µM | 0.899
G401, 0.1235 µM | 0.898
G401, 0.3704 µM | 0.886
G401, 1.111 µM | 0.846
G401, 3.333 µM | 0.794
G401, 10 µM | 0.774
HT1080, 0.00017 µM | 1.08
HT1080, 0.00051 µM | 1.11
HT1080, 0.00152 µM | 1.08
HT1080, 0.00457 µM | 1.08
HT1080, 0.01372 µM | 1.05
HT1080, 0.04115 µM | 1.08
HT1080, 0.1235 µM | 1.1
HT1080, 0.3704 µM | 1.09
HT1080, 1.111 µM | 1.12
HT1080, 3.333 µM | 1.09
HT1080, 10 µM | 0.978
KHOS-240S, 0.00017 µM | 1.08
KHOS-240S, 0.00051 µM | 1.07
KHOS-240S, 0.00152 µM | 1.08
KHOS-240S, 0.00457 µM | 1.1
KHOS-240S, 0.01372 µM | 1.06
KHOS-240S, 0.04115 µM | 1.08
KHOS-240S, 0.1235 µM | 1.04
KHOS-240S, 0.3704 µM | 1.05
KHOS-240S, 1.111 µM | 1
KHOS-240S, 3.333 µM | 0.891
KHOS-240S, 10 µM | 0.784
MES-SA, 0.00017 µM | 0.899
MES-SA, 0.00051 µM | 0.909
MES-SA, 0.00152 µM | 0.914
MES-SA, 0.00457 µM | 0.908
MES-SA, 0.01372 µM | 0.896
MES-SA, 0.04115 µM | 0.884
MES-SA, 0.1235 µM | 0.868
MES-SA, 0.3704 µM | 0.853
MES-SA, 1.111 µM | 0.817
MES-SA, 3.333 µM | 0.6876
MES-SA, 10 µM | 0.598
RD, 0.00017 µM | 1.13
RD, 0.00051 µM | 1.06
RD, 0.00152 µM | 1.08
RD, 0.00457 µM | 1.12
RD, 0.01372 µM | 1.09
RD, 0.04115 µM | 1.05
RD, 0.1235 µM | 1.04
RD, 0.3704 µM | 1.06
RD, 1.111 µM | 0.995
RD, 3.333 µM | 0.915
RD, 10 µM | 0.87
RD-ES, 0.00017 µM | 0.9605
RD-ES, 0.00051 µM | 0.9809
RD-ES, 0.00152 µM | 0.959
RD-ES, 0.00457 µM | 0.985
RD-ES, 0.01372 µM | 0.926
RD-ES, 0.04115 µM | 0.9
RD-ES, 0.1235 µM | 0.845
RD-ES, 0.3704 µM | 0.773
RD-ES, 1.111 µM | 0.735
RD-ES, 3.333 µM | 0.602
RD-ES, 10 µM | 0.546
SK-ES-1, 0.00017 µM | 1.03
SK-ES-1, 0.00051 µM | 1.04
SK-ES-1, 0.00152 µM | 1.06
SK-ES-1, 0.00457 µM | 1.02
SK-ES-1, 0.01372 µM | 1.04
SK-ES-1, 0.04115 µM | 0.989
SK-ES-1, 0.1235 µM | 0.837
SK-ES-1, 0.3704 µM | 0.761
SK-ES-1, 1.111 µM | 0.659
SK-ES-1, 3.333 µM | 0.466
SK-ES-1, 10 µM | 0.427
SK-LMS-1, 0.00017 µM | 1.05
SK-LMS-1, 0.00051 µM | 1.05
SK-LMS-1, 0.00152 µM | 1.12
SK-LMS-1, 0.00457 µM | 1.08
SK-LMS-1, 0.01372 µM | 1.09
SK-LMS-1, 0.04115 µM | 1.11
SK-LMS-1, 0.1235 µM | 1.06
SK-LMS-1, 0.3704 µM | 1.01
SK-LMS-1, 1.111 µM | 0.99
SK-LMS-1, 3.333 µM | 0.952
SK-LMS-1, 10 µM | 0.9041
SW982, 0.00017 µM | 1.03
SW982, 0.00051 µM | 1.03
SW982, 0.00152 µM | 1.04
SW982, 0.00457 µM | 1.0148
SW982, 0.01372 µM | 1.05
SW982, 0.04115 µM | 1.02
SW982, 0.1235 µM | 0.992
SW982, 0.3704 µM | 1.02
SW982, 1.111 µM | 0.993
SW982, 3.333 µM | 0.788
SW982, 10 µM | 0.66
SW1353, 0.00017 µM | 1.01
SW1353, 0.00051 µM | 1
SW1353, 0.00152 µM | 0.974
SW1353, 0.00457 µM | 0.985
SW1353, 0.01372 µM | 0.992
SW1353, 0.04115 µM | 0.961
SW1353, 0.1235 µM | 0.921
SW1353, 0.3704 µM | 0.918
SW1353, 1.111 µM | 0.901
SW1353, 3.333 µM | 0.802
SW1353, 10 µM | 0.858
SYO-1, 0.00017 µM | 0.96
SYO-1, 0.00051 µM | 0.956
SYO-1, 0.00152 µM | 0.96
SYO-1, 0.00457 µM | 0.937
SYO-1, 0.01372 µM | 0.923
SYO-1, 0.04115 µM | 0.87
SYO-1, 0.1235 µM | 0.814
SYO-1, 0.3704 µM | 0.772
SYO-1, 1.111 µM | 0.705
SYO-1, 3.333 µM | 0.598
SYO-1, 10 µM | 0.523
VA-ES-BJ, 0.00017 µM | 1.03
VA-ES-BJ, 0.00051 µM | 1.04
VA-ES-BJ, 0.00152 µM | 1.01
VA-ES-BJ, 0.00457 µM | 0.995
VA-ES-BJ, 0.01372 µM | 0.988
VA-ES-BJ, 0.04115 µM | 0.985
VA-ES-BJ, 0.1235 µM | 0.931
VA-ES-BJ, 0.3704 µM | 0.869
VA-ES-BJ, 1.111 µM | 0.872
VA-ES-BJ, 3.333 µM | 0.712
VA-ES-BJ, 10 µM | 0.597
